Results as given in patent US6399355B1 (priority 1995, dated 2002).

Tested on: HIV-1
Type: cell-based
Settings: for Inhibition Ratio (Number of viral particles/ml in control)/(Number with drug added): 1 μg/ml test compound mixed with HIV-1 (10^5 infectious units) at 37° C. for 2 hours, cells cultured six days; for viral inactivation (in words): at these concentrations (1 μg/ml)
Protocol: HIV-1 (10^5 infectious units) was mixed with 1 μg/ml of test compound at 37° C. for 2 hours. Test cells were innoculated with the mixture for two hours. The cells were then washed three times with PBS and cultured for six days.

Substance | Inhibition Ratio (Number of viral particles/ml in control)/(Number with drug added) | viral inactivation (in words)
pentosan sulfate [Pentosan Sultate] | 1 | do not show significant activation
Dextran sulfate | 1 | do not show significant activation
